Measured values from ChEMBL document CHEMBL1150135, “Pharacine, a natural p-cyclophane and other indole derivatives from Cytophaga sp. strain AM13.1” (J Nat Prod, 2002).
The source made the active and inactive calls.

Assays:
Type in all cases: functional, organism-based
Staphylococcus aureus = test: Antimicrobial activity against Staphylococcus aureus by agar diffusion method
Bacillus subtilis = test: Antimicrobial activity against Bacillus subtilis by agar diffusion method
Rhizomucor miehei = test: Antimicrobial activity against Mucor miehei by agar diffusion method
[1] = tested on: Streptomyces viridochromogenes; test: Antimicrobial activity against Streptomyces viridochromogenes by agar diffusion method
Escherichia coli = test: Antimicrobial activity against Escherichia coli by agar diffusion method
Candida albicans = test: Antimicrobial activity against Candida albicans by agar diffusion method

Measured: Activity

NC(=O)Cc1ccc(O)cc1
inactive: Staphylococcus aureus | Bacillus subtilis | Rhizomucor miehei | [1] | Escherichia coli | Candida albicans

O=C1OCCCCOC(=O)c2ccc(cc2)C(=O)OCCCCOC(=O)c2ccc1cc2
inactive: Staphylococcus aureus | Bacillus subtilis | Rhizomucor miehei | [1] | Escherichia coli | Candida albicans

c1ccc2c(Cc3cnc(Cc4c[nH]c5ccccc45)cn3)c[nH]c2c1
inactive: Staphylococcus aureus | Bacillus subtilis | Rhizomucor miehei | [1] | Escherichia coli | Candida albicans

CC(C)CC(=O)NCCc1c[nH]c2ccccc12
inactive: Staphylococcus aureus | Bacillus subtilis | Rhizomucor miehei | [1] | Escherichia coli | Candida albicans
